Laboratory results from DBAASP.
≈ marks a conversion by molar mass, not a printed value. Where “and” joins values, the source holds several entries; their conditions need not be identical. Equal values may be shown once.

Assays:
Assay in all cases: ≥ marks a high value that may be exact or a test limit, other limits are often not marked, values filed in µg/mL are converted to µM
[1] = system: Escherichia coli K99
[2] = system: Escherichia coli 078
[3] = system: Escherichia coli UB1005
[4] = system: Candida tropicalis CGMCC 2.1975
[5] = system: Salmonella enterica subsp. enterica serovar Typhimurium C77-31
[6] = system: Pseudomonas aeruginosa ATCC 27853
[7] = system: Escherichia coli K88
[8] = system: Staphylococcus aureus ATCC 25923
[9] = system: Salmonella enterica subsp. enterica serovar Pullorum ATCC 7913
[10] = system: Candida parapsilosis CGMCC 2.3989
[11] = system: Salmonella enterica subsp. enterica serovar Typhimurium ATCC 14028
[12] = system: Staphylococcus epidermidis ATCC 12228
[13] = system: Staphylococcus aureus ATCC 43300
[14] = system: Pseudomonas aeruginosa ATCC 15442
[15] = system: Staphylococcus epidermidis
[16] = system: Escherichia coli ATCC 25922
[17] = system: Enterobacter cloacae ATCC 23355
[18] = system: Staphylococcus aureus ATCC 6538
[19] = system: Staphylococcus saprophyticus
[20] = system: Bacillus subtilis CCT 2471
[21] = system: Escherichia coli CCT 1371
[22] = system: Legionella pneumophila Lens
[23] = system: Acinetobacter baumannii CR17
[24] = system: Vibrio parahaemolyticus
[25] = system: Vibrio harveyi
[26] = system: Vibrio alginolyticus
[27] = system: Micrococcus luteus
[28] = system: Escherichia coli
[29] = system: Vibrio campbellii
[30] = system: Lacticaseibacillus rhamnosus 1.0936
[31] = system: Pseudomonas aeruginosa PAO1
[32] = system: Staphylococcus aureus ATCC 29213
[33] = system: Lacticaseibacillus rhamnosus 1.9021
[34] = system: Streptococcus agalactiae BNCC 185941
[35] = system: Lacticaseibacillus rhamnosus 8014
[36] = system: Lacticaseibacillus rhamnosus 1.0911
[37] = system: Escherichia coli O157:H7 CICC 21530
[38] = system: Salmonella enterica subsp. enterica serovar Pullorum C79-13
[39] = system: Salmonella enterica subsp. enterica serovar Choleraesuis CVCC 503

**Q.** `CC[C@H](C)[C@H](NC(=O)[C@H](Cc1c[nH]c2ccccc12)NC(=O)[C@H](CCCN=C(N)N)NC(=O)[C@H](CC(C)C)NC(=O)[C@@H](NC(=O)[C@H](CCCN=C(N)N)NC(=O)[C@H](CCCN=C(N)N)NC(=O)[C@H](C)NC(=O)[C@H](C)N)[C@@H](C)CC)C(=O)N[C@@H](Cc1ccccc1)C(=O)N[C@@H](CCCN=C(N)N)C(N)=O` [AARRILRWIFR] was tested. Which MIC [1] did it give?
**A.** The MIC was 4 µM (≈ 5.83 µg/mL).

**Q.** What about the MIC [2] of the same molecule?
**A.** Its MIC is 4 µM (≈ 5.83 µg/mL).

**Q.** What about the MIC [3] of the same molecule?
**A.** Its MIC is 4 µM (≈ 5.83 µg/mL).

**Q.** And the MIC [4]?
**A.** The MIC was 4 µM (≈ 5.83 µg/mL).

**Q.** And the MIC [5]?
**A.** Its MIC is 4 µM (≈ 5.83 µg/mL).

**Q.** What about the MIC [6] of the same molecule?
**A.** Its MIC is 8 µM (≈ 11.7 µg/mL).

**Q.** What about the MIC [7] of the same molecule?
**A.** Its MIC is 4 µM (≈ 5.83 µg/mL).

**Q.** And the MIC [8]?
**A.** Its MIC is 8 µM (≈ 11.7 µg/mL).

**Q.** What about the MIC [9] of the same molecule?
**A.** Its MIC is 4 µM (≈ 5.83 µg/mL).

**Q.** What about the MIC [10] of the same molecule?
**A.** The MIC was 8 µM (≈ 11.7 µg/mL).

**Q.** And the MIC [11]?
**A.** Its MIC is 4 µM (≈ 5.83 µg/mL).

**Q.** What about the MIC [12] of the same molecule?
**A.** Its MIC is 4 µM (≈ 5.83 µg/mL).

**Q.** What about the MIC [13] of the same molecule?
**A.** Its MIC is 8 µM (≈ 11.7 µg/mL).

**Q.** With `CC[C@H](C)[C@H](NC(=O)[C@H](C)NC(=O)CNC(=O)[C@H](CC(C)C)NC(=O)[C@@H](NC(=O)[C@H](CCCCN)NC(=O)[C@H](CCCCN)NC(=O)[C@@H](NC(=O)[C@@H](NC(=O)CNC(=O)[C@H](CC(C)C)NC(=O)[C@H](CC(C)C)NC(=O)[C@H](CCCCN)NC(=O)[C@@H](N)CC(C)C)[C@@H](C)CC)C(C)C)C(C)C)C(N)=O` [LKLLGIVKKVLGAI] as the molecule, how does the MIC [14] read?
**A.** The MIC was no less than 34 µM.

**Q.** And the MIC [15]?
**A.** The MIC was no less than 34 µM.

**Q.** What about the MIC [16] of the same molecule?
**A.** Its MIC is 3 µM (≈ 4.39 µg/mL).

**Q.** And the MIC [17]?
**A.** Its MIC is no less than 34 µM.

**Q.** What about the MIC [18] of the same molecule?
**A.** Its MIC is 17 µM (≈ 24.9 µg/mL).

**Q.** And the MIC [8]?
**A.** The MIC was 3 µM (≈ 4.39 µg/mL).

**Q.** What about the MIC [19] of the same molecule?
**A.** Its MIC is 3 µM (≈ 4.39 µg/mL).

**Q.** And the MIC [20]?
**A.** The MIC was no less than 68 µM.

**Q.** What about the MIC [21] of the same molecule?
**A.** Its MIC is no less than 34 µM.

**Q.** Which MIC [22] does the source give for `CC[C@H](C)[C@H](NC(=O)[C@H](Cc1ccccc1)NC(=O)[C@H](CC(=O)O)NC(=O)[C@H](C)NC(=O)[C@@H](N)CCSC)C(=O)N[C@@H](C)C(=O)N[C@@H](CCCCN)C(=O)N[C@H](C(=O)N[C@H](C(=O)N[C@@H](CCC(=O)O)C(=O)N[C@H](C(=O)N[C@H](C(=O)N[C@@H](CCCCN)C(=O)NCC(=O)N[C@@H](CC(C)C)C(=O)N[C@H](C(=O)N[C@@H](CC(=O)O)C(=O)N[C@@H](CCC(N)=O)C(=O)N[C@@H](Cc1ccccc1)C(=O)N[C@H](C(=O)N[C@@H](CCC(N)=O)C(=O)N[C@@H](CCCCN)C(=O)O)[C@@H](C)O)[C@@H](C)CC)C(C)C)[C@@H](C)CC)C(C)C)[C@@H](C)CC` [MADFIAKIVEIVKGLIDQFTQK] here?
**A.** The MIC was 1.25 µM (≈ 3.14 µg/mL).

**Q.** With `CC[C@H](C)[C@H](NC(=O)[C@H](CC(N)=O)NC(=O)[C@H](CC(C)C)NC(=O)[C@H](CCCCN)NC(=O)[C@H](C)NC(=O)[C@H](CC(C)C)NC(=O)[C@H](C)NC(=O)[C@H](C)NC(=O)[C@H](CC(C)C)NC(=O)[C@H](C)NC(=O)[C@H](CCCCN)NC(=O)[C@H](CCCCN)NC(=O)[C@@H](NC(=O)[C@@H](N)CC(C)C)[C@@H](C)CC)C(N)=O` [LIKKALAALAKLNI] as the molecule, how does the MIC [23] read?
**A.** The MIC was no less than 173 µM.

**Q.** For `CC[C@H](C)[C@H](NC(=O)[C@H](Cc1ccccc1)NC(=O)[C@H](Cc1ccc(O)cc1)NC(=O)[C@@H]1CCCN1C(=O)[C@H](CCCN=C(N)N)NC(=O)[C@@H](NC(=O)[C@H](CO)NC(=O)[C@H](Cc1ccc(O)cc1)NC(=O)[C@H](CO)NC(=O)[C@H](CS)NC(=O)[C@H](Cc1ccc(O)cc1)NC(C)=O)[C@@H](C)O)C(=O)N[C@@H](CCCN=C(N)N)C(=O)N[C@@H](Cc1c[nH]c2ccccc12)C(=O)N[C@@H](CCC(N)=O)C(=O)N[C@@H](CC(C)C)C(=O)N[C@@H](CCCCN)C(=O)N[C@@H](Cc1ccccc1)C(=O)N[C@@H](CCCCN)C(=O)N[C@H](C(=O)N[C@@H](CCCCN)C(=O)N[C@H](C(=O)N[C@@H](Cc1c[nH]c2ccccc12)C(=O)N[C@@H](CS)C(=O)N1CCC[C@H]1C(N)=O)[C@@H](C)CC)[C@@H](C)O` [YCSYSTRPYFIRWQLKFKTKIWCP], which MIC [24] is on record?
**A.** Its MIC is no less than 64 µM.

**Q.** What about the MIC [25] of the same molecule?
**A.** Its MIC is no less than 64 µM.

**Q.** What about the MIC [26] of the same molecule?
**A.** Its MIC is no less than 64 µM.

**Q.** What about the MIC [15] of the same molecule?
**A.** Its MIC is no less than 64 µM.

**Q.** What about the MIC [27] of the same molecule?
**A.** The MIC was no less than 64 µM.

**Q.** And the MIC [28]?
**A.** The MIC was greater than 64 µM.

**Q.** And the MIC [29]?
**A.** Its MIC is no less than 64 µM.

**Q.** Which results are given for `CC[C@H](C)[C@H](NC(=O)CNC(=O)[C@@H](NC(=O)[C@H](Cc1c[nH]c2ccccc12)NC(=O)[C@@H](NC(=O)CNC(=O)[C@@H](NC(=O)[C@H](CCCCN)NC(=O)[C@@H](N)CCCCN)[C@@H](C)CC)[C@@H](C)CC)[C@@H](C)CC)C(=O)N[C@@H](CCCCN)C(=O)N[C@@H](CCCCN)C(N)=O` [KKIGIWIGIKK]?
**A.** MIC [30]: ≥ 64 µM; MIC [31]: 16 µM (≈ 20.5 µg/mL); MIC [32]: 16 µM (≈ 20.5 µg/mL); MIC [33]: ≥ 32 µM; MIC [34]: ≥ 128 µM; MIC [16]: 8 µM and 16 µM; MIC [35]: 16 µM (≈ 20.5 µg/mL); MIC [6]: 4 µM (≈ 5.13 µg/mL); MIC [36]: 16 µM (≈ 20.5 µg/mL); MIC [37]: 4 µM (≈ 5.13 µg/mL); MIC [7]: 2 µM (≈ 2.57 µg/mL); MIC [38]: 8 µM (≈ 10.3 µg/mL); MIC [39]: 8 µM (≈ 10.3 µg/mL); MIC [11]: 16 µM (≈ 20.5 µg/mL); MIC [12]: 64 µM (≈ 82.1 µg/mL); MIC [13]: 16 µM (≈ 20.5 µg/mL)
